Measured values reported in patent US20240382509A1, “Cannabinoids C- and O-glycosides possessing anti-proliferative and anti-metastatic properties and process for preparation thereof” (Council of Scientific and Industrial Research, priority 2021, published 2024).

How the values were obtained:
[1] = tested on: γH2AX, RAD-51, BCL-2, Bax, caspase-3 in HCT-116 cells; assay: Immunoblot after combinatorial treatment of 5FU and compound 2a; format: cell-based
From the text: The effect of the compound 2a in combination with DNA damaging drug 5-Fluorouracil in colon adenocarcinoma cells was studied. […] Consequently, the major repair factor RAD-51 got diminished as compared to 5FU alone treated lane. The immunoblot results also depicted the downmodulation of cellular survival factor BCL-2 and subsequent upregulation of proapoptotic protein Bax (FIG. 8a). […] Moreover, the effect of the combinatorial treatment on chromosomal stability in HCT-116 cells by chromosome isolation and staining was studied.
(§1) The DNA damaging effect of compound 2a in combination with subtoxic doses of 5FU was further analyzed by Annexin/PI staining to check the activation of programmed cell death. […] Cumulatively, compound 2a elevated the DNA damaging effect and eventually leads to programmed cell death in combination with subtoxic doses of 5FU (FIG. 9b).

[2] = tested on: lung adenocarcinoma cells (A549); assay: MTT cell viability assay, A549; format: cell-based; conditions: Homo sapiens, A549, 48 h, read-out: Cytotoxicity (IC50) A549, MTT, 48 h
Protocol: (§2) Cell viability assay: The cell viability was determined by the standard MTT assay method. Briefly, Panc-1, HCT-116, A549, PC3, MIAPaca-2, HT-29, MDA-MB-231, MCF7 cells, and fR2cells were seeded in 96 well tissue culture plates (Nunc) at a density of 4×10^3 cells per well and treated with varying concentrations of the test compounds in triplicates. DMSO was taken as a vehicle, and its final concentration was maintained at 0.2% in the culture medium. Doxorubicin was employed as a positive control. After 44 h of incubation, MTT dye solution was added into the medium, and cells were incubated for another 4 h at 37° C. in 5% CO2. The amount of colored formazan derivatives formed was measured by taking optical density (OD) using a microplate reader (TECAN, Infinite M200 Pro) at 570 nm, and the percentage of cell viability was calculated. The IC50 values were calculated using GraphPad Prism software (Version 5.0).

HCT-116 cells [3] = assay: MTT cell viability assay, HCT-116; format: cell-based; conditions: Homo sapiens, HCT-116, 48 h, read-out: Cytotoxicity (IC50) HCT-116, MTT, 48 h; colorectal adenocarcinoma cells
Protocol: as §2

HCT-116 cells [4] = assay: Annexin V/PI staining for apoptosis (FACS); format: cell-based; conditions: HCT-116, 750 nM 5FU+3 μM 2a
Protocol: 1×10^6 HCT-116 cells were seeded in 60 mm Petri dish and treated with vehicle, 3 μM 2a, 750 nM 5FU and 750 nM 5FU+3 μM 2a for indicated time points. After treatment termination, the cells were carefully trypsinized and the palette obtained were resuspended in 600 μL of binding buffer (10 mM HEPES [N-2-hydroxyethylpiperazine-N-2-ethanesulfonicacid], 140 mM NaCl, and 2.5 mM CaCl2, pH 7.4). Subsequently, the cells were stained with 6 μL of AnnexinV-FITC and 10 μL of propidium iodide for 20 min at room temperature in the dark. The samples were immediately analyzed by FACS (BD Accuri C6), and the scatter plot was obtained by BD Accuri C6 software.
as §1

MCF-7 cells = assay: MTT cell viability assay, MCF-7; format: cell-based; conditions: Homo sapiens, MCF7, 48 h, read-out: Cytotoxicity (IC50) MCF-7, MTT, 48 h; breast cancer cell of epithelial origin
Protocol: as §2

γH2AX in HCT-116 cells = assay: γH2AX immunofluorescence after combinatorial treatment of 5FU and compound 2a; format: cell-based; conditions: HCT-116, 750 nM 5FU+3 μM 2a
Protocol: Assessment of DNA damage by combinatorial treatment of 5FU and Compound 2a. An immunofluorescence study was performed to assess the expression of γH2AX, which tends to form a complex with damaged DNA resulting in the formation of a beads-like structure when tagged with a fluorescent labelled antibody. Briefly, HCT-116 cells were seeded in 8 well chamber slide and treated with vehicle, 750 nM 5FU+3 μM 2a for 36, 48, and 60 h and 750 nM 5FU for 60 h. Following termination of drug treatment, the cells were washed with ice-cold PBS and fixed with 4% paraformaldehyde for 10 min. Subsequently, permeabilization was done by incubating the cells with 0.1% Triton X-100. Before incubating with primary antibody (anti-γH2AX mouse monoclonal antibody), the cells were blocked with 5% BSA for 1-2 h; consequently, the cells were incubated with primary antibody (1:200) for overnight at 4° C. Subsequently, the cells were washed with ice-cold PBS for five times and further incubated with secondary anti-mouse antibody (1:500) for 30 min. The slides, after thorough washing with PBS, were mounted in DAPI containing mounting media. The images were captured in Floid imaging station at 20× optical magnification, and digital zooming was done up to […].
The effect of the compound 2a in combination with DNA damaging drug 5-Fluorouracil in colon adenocarcinoma cells was studied. […]

MIAPaCa-2 cells = assay: MTT cell viability assay, MIAPaCa-2; format: cell-based, human; conditions: Homo sapiens, MIA PaCa-2, 48 h, read-out: Cytotoxicity (IC50) MIAPaCa-2, MTT, 48 h
Protocol: as §2

[5] = tested on: human colorectal adenocarcinoma cell line (HT-29); assay: MTT cell viability assay, HT-29; format: cell-based; conditions: Homo sapiens, HT-29, 48 h, read-out: Cytotoxicity (IC50) HT-29, MTT, 48 h; human colorectal adenocarcinoma cell line
Protocol: as §2

MDA-MB-231 cells = assay: Matrigel invasion assay, MDA-MB-231; format: cell-based, human; conditions: MDA-MB231, 0.5 μM to 5 μM
Protocol: Matrigel invasion assay: MIAPaCa-2 and MDA-MB-231 cells (1×10^6) were seeded onto matrigel coated inserts and treated with compound 2a (0.5, 1.5, 3 & 5 μM) for 36 h in 5% CO2 incubator at 37° C. The upper chamber is filled with serum-free media, and the lower half consists of 10% FBS supplemented media, thus creating a gradient of chemoattractant that facilitates the migration of cells. Upon termination, the inserts were washed with PBS, and the non-migratory cells were removed from the upper chamber by using a cotton plug. Further, the cells were fixed with methanol and stained later with 0.2% crystal violet. After drying, the inserts were observed under an inverted microscope at 20× magnification, and images were taken.
Now to study its anti-migratory and anti-metastatic role in another highly metastatic cancer cells of breast origin (MDA-MB 231) the IC50 value was determined by performing MTT assay (FIG. 6a).

[6] = HCT-116, 2a in combination with 5FU

CCCCCc1cc(O[C@@H]2OC(CO)[C@@H](O)C(O)C2O)c2c(c1)OC(C)(C)[C@@H]1CCC(C)=C[C@@H]21 (stereo partly drawn) [Compound 2a, Δ^9-tetrahydrocannabinol-1-O-β-D-glucopyranoside]
caspase-3 cleavage ([1]; HCT-116, 2a in association with 5FU, 48 and 60 h): incite caspase-3 cleavage
BCL-2 survival factor [1, 6]: downmodulation
proapoptotic protein Bax [1, 6]: upregulation
expression of γH2AX protein (immunoblot) ([1]; HCT-116, 2a in combination with 5FU, 36 and 48 h): enhanced expression
RAD-51 repair factor ([1]; HCT-116, 2a in combination with 5FU, compared to 5FU alone): diminished
IC50 [2]: 1440 nM
IC50 (HCT-116 cells [3]): 2100 nM
apoptosis (Annexin+/PI+) (HCT-116 cells [4]): induction of late phase of apoptosis
IC50 (MCF-7 cells): 15400 nM
expression of γH2AX (immunocytochemistry) (γH2AX in HCT-116 cells): increased expression
IC50 (MIAPaCa-2 cells): 1420 nM
IC50 [5]: 3160 nM
migration in Matrigel coated invasion chamber (MDA-MB-231 cells): periodical loss of migration
